Where a name gives a salt, the structure may show the parent alone.

Broadly, the melting point is the temperature of the solid-liquid transition. For the compound `CC(C)(C)OC(=O)C[C@H](NC(=O)CNC(=O)c1csc(NC(=O)NCc2ccccc2)n1)C(=O)NCc1cccnc1` [Example 163, tert-butyl (S)-3-[2-[[2-(3-benzyl-ureido)-thiazole-4-carbonyl]-amino]-acetylamino]-N-pyridin-3-ylmethyl-succinamate], the melting point was 185 °C.
Regarding `CCOC(=O)CC(NC(=O)c1cc(NC(=O)c2sc(NC(=N)N)nc2C)cc(OCc2ccccc2)c1)c1ccccc1` (racemic) [Example 74, ethyl (RS)-3-{3-benzyloxy-5-[(2-guanidino-4-methyl-thiazole-5-carbonyl)-amino]-benzoylamino}-3-phenyl-propionate], the melting point worked out at 116 °C.
The compound `CCOC(=O)CC(CCCNC(=O)c1csc(NC(=O)NCc2ccccc2)n1)C(=O)NCc1ccccc1` (racemic) [Example 147, ethyl rac-3-benzylcarbamoyl-6-{[2-(3-benzyl-ureido)-thiazole-4-carbonyl]-amino}-hexanoate] registered a melting point of 128 °C.
As for `CCOC(=O)CC(NC(=O)c1cccc(NC(=O)c2sc(NC(=N)N)nc2C)c1)c1ccccc1` (racemic) [Example 10, ethyl rac-3-[3-[(2-guanidino-4-methyl-thiazole-5-carbonyl)-amino]-benzoylamino]-3-phenyl-propionate], the figure is 177 °C; as for `CCOC(=O)CCNC(=O)CCNC(=O)c1csc(NC(=N)N)n1` [Example 7, ethyl 3-[3-[(2-guanidino-thiazole-4-carbonyl)-amino]-propionylamino]-propionate], 154 to 157 °C.
For `CCOC(=O)CC(NC(=O)CNC(=O)c1csc(N=C2NCCN2)n1)c1cccnc1` (racemic) [Example 171, ethyl (RS)-3-(2-{[2-(imidazolidin-2-ylidenamino)-thiazole-4-carbonyl]-amino}-acetylamino)-3-pyridin-3-yl-propionate], the melting point lay within 198 to 199 °C.
`CC(C)[C@H](NC(=O)[C@H](CC(=O)OC(C)(C)C)NC(=O)CNC(=O)c1csc(NC(=O)NCc2ccccc2)n1)C(=O)OC(C)(C)C` [Example 141, tert-butyl (S)-2-[(S)-2-[2-[[2-(3-benzyl-ureido)-thiazole-4-carbonyl]-amino]-acetylamino]-3-tert-butoxycarbonyl-propionylamino]-3-methyl-butyrate]: the melting point was 108 to 111 °C.
To `O=C(O)C[C@H](NC(=O)CNC(=O)c1csc(NC(=O)NCc2ccccc2)n1)C(=O)NCc1ccccc1` (as salt: trifluoroacetate) [Example 130, (S)-N-benzyl-3-[2-[[2-(3-benzyl-ureido)-thiazole-4-carbonyl]-amino]-acetylamino]-succinamic acid] belongs 193 °C; to `CCOC(=O)CCNC(=O)CNC(=O)c1csc(NC(=O)NCc2ccccc2)n1` [Example 131, ethyl 3-[2-[[2-(3-benzyl-ureido)-thiazole-4-carbonyl]-amino]-acetylamino]-propionate], 187 °C.
To `Cc1nc(NC(=N)N)sc1C(=O)NCCC(=O)NCCC(=O)O.Cl.Cl` belongs 170 °C.
As for `CC(C)(C)OC(=O)C[C@H](NC(=O)CNC(=O)c1csc(NC(=O)NCc2ccccc2)n1)C(=O)NCc1ccccc1` [Example 129, tert-butyl (S)-N-benzyl-3-[2-[[2-(3-benzyl-ureido)-thiazole-4-carbonyl]-amino]-acetylamino]-succinamate], the figure is 123 °C; as for `CC(C)(C)OC(=O)N[C@@H](CCCCNC(=O)c1csc(NC(=O)NCc2ccccc2)n1)C(=O)O` [Example 146, (S)-6-{[2-(3-benzyl-ureido)-thiazole-4-carbonyl]-amino}-2-tert-butoxycarbonylamino-hexanoic acid], 138 °C.
In turn, `CC(C)(C)OC(=O)CCNC(=O)c1cccc(NC(=O)c2csc(NC(=O)NCc3ccccc3)n2)c1` [Example 169, tert-butyl 3-(3-{[2-(3-benzyl-ureido)-thiazole-4-carbonyl]-amino}-benzoylamino)-propionate] came in with a melting point of 212 °C.
As to `CCCCCc1nc(NC(=N)N)sc1-c1cccc(NC(=O)CC(CC(=O)O)c2ccccc2)c1` (racemic) [Example 94, rac-4-[3-(2-guanidino-4-pentyl-thiazol-5-yl)-phenylcarbamoyl]-3-phenyl-butyric acid], the melting point is 186 to 188 °C (dec.).
In the case of `CCCc1nc(NC(=N)N)sc1-c1cccc(NC(=O)CC(CC(=O)O)c2ccccc2)c1` (racemic) [Example 92, rac-4-[3-(2-guanidino-4-propyl-thiazol-5-yl)-phenylcarbamoyl]-3-phenyl-butyric acid], the melting point was 245 to 247 °C (dec.).
`CC(C)(C)OC(=O)C[C@H](NC(=O)CNC(=O)c1csc(NC(=O)NCc2ccccc2)n1)C(=O)NCc1ccccn1` [Example 161, tert-butyl (S)-3-[2-[[2-(3-benzyl-ureido)-thiazole-4-carbonyl]-amino]-acetylamino]-N-pyridin-2-ylmethyl-succinamate] returned a melting point of 108 °C.
As for `O=C(O)C[C@H](NC(=O)CNC(=O)c1csc(NC(=O)NCc2ccccc2)n1)C(=O)N[C@H](C(=O)O)c1ccccc1` (as salt: trifluoroacetate) [Example 144, (S)-3-[2-[[2-(3-benzyl-ureido)-thiazole-4-carbonyl]-amino]-acetyl-amino]-N-[(S)-carboxy-phenyl-methyl)-succinamic acid], the figure is 126 to 130 °C; as for `O=C(O)C[C@H](NC(=O)CNC(=O)c1csc(NC(=O)NCc2ccccc2)n1)C(=O)O` (as salt: trifluoroacetate) [Example 158, (S)-2-(2-{[2-(3-benzyl-ureido)-thiazole-4-carbonyl]-amino}-acetylamino)-succinic acid], 183 °C.
As for `O=C(O)C(F)(F)F.O=C(O)C[C@H](NC(=O)CCCc1csc(NC(=O)NCc2ccccc2)n1)C(=O)NCc1ccccc1`, the figure is 159 °C; as for `O=C(O)CCCC(=O)CNC(=O)c1csc(NC(=O)NCc2ccccc2)n1` [Example 83, 6-{[2-(3-benzyl-ureido)-thiazole-4-carbonyl]-amino}-5-oxo-hexanoic acid], 169 °C; as for `CCOC(=O)CC(NC(=O)CCNC(=O)c1sc(NC(=N)N)nc1C)c1ccccc1` (racemic) [Example 26, ethyl rac-3-[3-[(2-guanidino-4-methyl-thiazole-5-carbonyl)-amino]-propionylamino]-3-phenyl-propionate], 106 to 107 °C.
As for `COc1cccc(NC(=O)[C@H](CC(=O)O)NC(=O)CNC(=O)c2csc(NC(=O)NCc3ccccc3)n2)c1` [Example 134, (S)-3-[2-[[2-(3-benzyl-ureido)-thiazole-4-carbonyl]-amino]-acetylamino]-N-(3-methoxy-phenyl)-succinamic acid], the figure is 185 °C.
`CCOC(=O)CC(CCCCNC(=O)c1sc(NC(=N)N)nc1C)c1ccccc1` (racemic) [Example 84, ethyl (RS)-7-[(2-guanidino-4-methyl-thiazole-5-carbonyl)-amino]-3-phenyl-heptanoate] showed a melting point of 138 °C.
For the compound `CCOC(=O)CCc1ccc(NC(=O)c2csc(NC(=O)NCc3ccccc3)n2)cc1` [Example 153, ethyl 3-[4-[[2-(3-benzyl-ureido)-thiazole-4-carbonyl]-amino]-phenyl]-propionate], the melting point came out at 194 °C.

The values are drawn from patent US6344562B1, “Thiazole derivatives” (Hoffmann-La Roche Inc., priority 1998, dated 2002).
